From patent US20240229116A9, “METHOD FOR DETECTING MICRORNA IN BIOLOGICAL SAMPLE, COMPOSITION OF HYDROCHLORIDE OF NEUTRAL AMINO ACID, AND CONTAINER” (Toray Industries, Inc., priority 2021, published 2024)
Structures can show the parent of a compound that is named as a salt.

Columns and labels:
microRNAs in serum = experiment: Detection of microRNAs from serum preserved after mixing with acid (3D-Gene DNA microarray, total fluorescence intensity); design: species or system human
Description: The serum which had been mixed with the acid in the step (A) was left to stand and preserved at 23° C. for 48 hours.
A quantity of 27 μL of a 4 M aqueous solution of tris(hydroxymethyl)aminomethane (manufactured by Nacalai Tesque Inc.) was mixed with the serum preserved in the step (B). […]
From the serum which had been mixed with the base in the step (C), microRNAs were collected using an RNA extraction reagent included in a 3D-Gene (registered trademark) RNA extraction reagent from liquid sample kit (manufactured by Toray Industries, Inc.), in accordance with the protocol defined by the company.
The microRNAs collected from the serum in the step (D) were fluorescently labeled, using a 3D-Gene (registered trademark) miRNA Labeling kit (manufactured by Toray Industries, Inc.), and in accordance with the protocol defined by the company. Using a 3D-Gene (registered trademark) Human miRNA Oligo chip (manufactured by Toray Industries, Inc.) containing probes having sequences complementary to 2,565 types of microRNAs, as a DNA microarray chip, hybridization was carried out in accordance with the protocol defined by the company. The DNA microarray chip was scanned using a 3D-Gene (registered trademark) scanner (manufactured by Toray Industries, Inc.), to obtain an image. The fluorescence intensities were digitized using a 3D-Gene (registered trademark) Extraction (manufactured by Toray Industries, Inc.), and the total value of the fluorescence intensities of the microRNAs which had been detected exceeding the detection limit was calculated, and the calculated value was defined as the detection level of the microRNAs.

[1] = pH adjustment of serum (dissolved state in serum and pH of serum); assay type: physicochemical, human; details: 1 mL serum added to 0.1 g composition (65 mg solid of glycine hydrochloride), 23° C. one minute
Description: From the upper layer of the serum in the tube, 0.1 mL of the serum was collected, and the measurement of the pH was performed using a handy pH meter (manufactured by HORIBA, Ltd.).

[2] = Comparative Example 3: subject X serum, no acid (pH 7.5), 23° C. 48 hours, Tris base to pH 7.7
[3] = Example 13: serum of healthy subject Y, pH 3.1 after acid, 23° C. 48 hours, Tris base to pH 7.8
[4] = Example 14: subject Y serum, pH 3.1 after acid, 23° C. 48 hours, Tris base to pH 6.0
[5] = Example 15: subject Y serum, pH 3.1 after acid, 23° C. 48 hours, Tris base to pH 7.0
[6] = Example 16: subject Y serum, pH 3.1 after acid, 23° C. 48 hours, no base mixed (pH 3.1)

Compound: tris(hydroxymethyl)aminomethane
- Fluorescence intensities relative to before preservation (microRNAs in serum; [2]): 16.3%
- Total value of fluorescence intensities (microRNAs in serum; [2]): 1.39 × 10^5

Compound: NCC(=O)O [Glycine hydrochloride, glycine hydrochloride]
- Total value of fluorescence intensities (microRNAs in serum; Example 1: serum of healthy subject X, pH 2.8 after mixing acid, preserved 23° C. 48 hours, Tris base to pH 7.5): 9.81 × 10^5
- Total value of fluorescence intensities (microRNAs in serum; Example 2: subject X serum, pH 2.8 after acid, 23° C. 48 hours, Tris base to pH 7.7): 9.51 × 10^5
- Total value of fluorescence intensities (microRNAs in serum; Example 3: subject X serum, pH 2.8 after acid, 23° C. 48 hours, Tris base to pH 8.0): 1.10 × 10^6
- Total value of fluorescence intensities (microRNAs in serum; Example 4: subject X serum, pH 2.8 after acid, 23° C. 48 hours, Tris base to pH 8.5): 8.99 × 10^5
- Total value of fluorescence intensities (microRNAs in serum; Example 5: subject X serum, pH 2.8 after acid, 23° C. 48 hours, Tris base to pH 9.0): 7.89 × 10^5
- Total value of fluorescence intensities (microRNAs in serum; Example 6: subject X serum, pH 2.8 after acid, 23° C. 48 hours, Tris base to pH 6.0): 7.19 × 10^5
- Total value of fluorescence intensities (microRNAs in serum; Example 7: subject X serum, pH 2.8 after acid, 23° C. 48 hours, Tris base to pH 7.0): 7.23 × 10^5
- Total value of fluorescence intensities (microRNAs in serum; Example 8: subject X serum, pH 2.8 after acid, 23° C. 48 hours, no base mixed (pH 2.8)): 6.25 × 10^5
- Total value of fluorescence intensities (microRNAs in serum; Example 9: subject X serum, pH 4.0 after acid, 23° C. 48 hours, Tris base to pH 7.7): 1.05 × 10^6
- Total value of fluorescence intensities (microRNAs in serum; Example 10: subject X serum, pH 2.8 after acid, 23° C. 2 hours, Tris base to pH 7.7): 8.70 × 10^5
- Total value of fluorescence intensities (microRNAs in serum; Example 11: subject X serum, pH 2.8 after acid, 23° C. 6 hours, Tris base to pH 7.7): 9.07 × 10^5
- Total value of fluorescence intensities (microRNAs in serum; Example 12: subject X serum, pH 2.8 after acid, 23° C. 96 hours, Tris base to pH 7.7): 1.00 × 10^6
- pH of serum ([1]; upper layer, pH 7.7 before the addition): 4.5
- dissolved state in serum ([1]; visual observation): did not quickly dissolve in the serum

Compound: O=C(O)CC(O)(CC(=O)O)C(=O)O [Citric acid, citric acid]
- Fluorescence intensities relative to before preservation (microRNAs in serum; [3]): 104.5%
- Total value of fluorescence intensities (microRNAs in serum; [3]): 1.10 × 10^6
- Fluorescence intensities relative to before preservation (microRNAs in serum; Example 13: serum of healthy subject Y, pH 3.1 after acid, 23° C. 48 hours, Tris base to pH 7.8, listed as citric acid): ≥ 100%
- Fluorescence intensities relative to before preservation (microRNAs in serum; [4]): 85.0%
- Total value of fluorescence intensities (microRNAs in serum; [4]): 8.95 × 10^5
- Fluorescence intensities relative to before preservation (microRNAs in serum; Example 14: subject Y serum, pH 3.1 after acid, 23° C. 48 hours, Tris base to pH 6.0, listed as citric acid): ≥ 70%
- Fluorescence intensities relative to before preservation (microRNAs in serum; [5]): 85.5%
- Total value of fluorescence intensities (microRNAs in serum; [5]): 9.00 × 10^5
- Fluorescence intensities relative to before preservation (microRNAs in serum; Example 15: subject Y serum, pH 3.1 after acid, 23° C. 48 hours, Tris base to pH 7.0, listed as citric acid): ≥ 70%
- Fluorescence intensities relative to before preservation (microRNAs in serum; [6]): 75.2%
- Total value of fluorescence intensities (microRNAs in serum; [6]): 7.92 × 10^5
- Fluorescence intensities relative to before preservation (microRNAs in serum; Example 16: subject Y serum, pH 3.1 after acid, 23° C. 48 hours, no base mixed (pH 3.1), listed as citric acid): ≥ 70%
